Data from US12509460B2 (Skyhawk Therapeutics, Inc., priority 2019, dated 2025).
Read-outs that look alike come from different tables or passages of the source.

How the values were obtained:
[1] = test system: MDR1-MDCK cell monolayers; assay: Blood-brain-barrier (BBB) penetration potential via MDCK-MDR1 permeability assay; details: for MDCK-MDR1: % Recov A-B / MDCK-MDR1: Papp A-B: A-B direction; for MDCK-MDR1: % Recov B-A / MDCK-MDR1: Papp B-A: B-A direction; for MDCK-MDR1: Efflux: efflux ratio
[2] = test system: SMN protein in spinal muscular atrophy (SMA) patient fibroblasts (GM03813, Coriell); assay: SMN protein assay, Mesoscale Discovery (MSD); assay type: cell-based, human; details: SMA patient fibroblasts GM03813, 48 hours, MSD; read-out: SMN2 protein EC50
Procedure, shortened: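 SMA patient fibroblasts (GM03813) seeded at 7000 cells/well and exposed to compound at 2.5 μM to 0.6 nM for 48 hours. Lysates assayed for SMN by MSD immunoassay, with absolute SMN amount calculated from a per-plate SMN standard curve (1 μg/ml to 19.5 pg/ml).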

[3] = test system: mHTT protein in GM04724 (CAG 70/20) Huntington's disease patient lymphoblast cells; assay: mHTT protein assay, 2B7-MW1 assay via Mesoscale Discovery (MSD); assay type: cell-based, human; details: GM04724 Huntington's disease patient lymphoblasts
Procedure, shortened: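 Patient lymphoblasts treated 48 h with compound from 10 μM to 0.6 nM. mHTT quantified by MSD 2B7-MW1 immunoassay, whose signal depends on polyQ expansion and HTT size. Viability measured on a replicate plate by CellTiter Glo.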

[4] = test system: Huntingtin (HTT) transcripts, cryptic exon within intron 49, in GM04724 (CAG 70/20) Huntington's disease patient lymphoblasts; assay: Quantitative splicing assay (HTT), qPCR; assay type: cell-based, human; details: 24 h, qPCR, read-out: HTT Splicing: E49-50 EC50
Procedure, shortened: (§1)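 Patient lymphoblasts (50,000 cells/well) dosed immediately after plating for 24 h at 2.5 uM to 0.15 nM in 0.1% DMSO. Lysed, cDNA made directly from cells, and inclusion of the intron 49 cryptic exon quantified by TaqMan qPCR.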

[5] = test system: SMN FL and SMN Δ7 in spinal muscular atrophy (SMA) patient fibroblasts (GM03813, Coriell); assay: Quantitative splicing assay (SMN), qPCR; assay type: cell-based, human; details: Homo sapiens, Fibroblast, 24 h, SMA patient fibroblasts GM03813, 24 h, qPCR; read-out: SMN2 Splicing FL EC50
Experimental: Spinal muscular atrophy (SMA) patient fibroblasts (GM03813, Coriell) are plated in 96-well plates at 50,000 cells/well. […] Treated cells are lysed and cDNA synthesized using the Fast Advanced Cells-to-Ct kit (Thermofisher A35378) according to the manufacturer's instructions. 2 μL of each cDNA are used in qPCR reactions. […] Reactions are run in a Quant Studio 6 qPCR instrument with default settings.

MDR1 [6] = assay: Blood-brain-barrier (BBB) penetration potential via MDCK-MDR1 permeability assay; details: dog, MDCK-MDR1, pH 7.4, MDCK-MDR1: Efflux, efflux ratio
MDR1 (P-gp) [7] = assay: as above; details: dog
MDR1 [8] = assay: in vitro; details: dog, MDCK-MDR1, pH 7.4
MDR1 (P-gp) [9] = assay: in vitro; details: dog, MDCK-MDR1, pH 7.4
[10] = Quantitative splicing assay (HTT), qPCR; assay type: cell-based, human; details: Homo sapiens; GM04724 lymphoblasts, 24 h, qPCR; read-out: HTT Splicing: E49-50 EC50
Procedure, shortened: as §1

[11] = test system: MDR1-MDCK cell monolayers; details: dog, MDCK-MDR1, 120 min, 5 μM, pH 7.4

For CN(c1ccc(-c2ccc(-c3cn[nH]c3)cc2O)nn1)C1CC2COCC(N2)C1F (stereo not drawn) [Compound 8B], which “MDCK-MDR1: % Recov A-B” value [1] is on record?
The value was 84%.

What about the “MDCK-MDR1: Papp A-B” value [1] of the same compound?
Its value is 2.04 10^−6, cm/s.

And the “MDCK-MDR1: % Recov B-A” value [1]?
The value was 98%.

What about the “MDCK-MDR1: Papp B-A” value [1] of the same compound?
Its value is 39.1 10^−6, cm/s.

What about the “MDCK-MDR1: Efflux” value [1] of the same compound?
The value was 19.

And the EC50 [2]?
The EC50 was 16 to 50 nM.

And the EC50 [3]?
Its EC50 is 0.01 to 15 nM.

What about the EC50 [4] of the same compound?
The EC50 was 0.01 to 15 nM.

And the EC50 [5]?
The EC50 was 16 to 50 nM.

What does the source list for CN(c1ccc(-c2ccc(-c3cn[nH]c3)cc2O)nn1)C1CC2COCC(N2)C1F (stereo not drawn) [Compound 8A]?
MDCK-MDR1: % Recov A-B [1]: 87%; MDCK-MDR1: % Recov B-A [1]: 93%; efflux ratio at 120 min, 5 μM (MDR1 [6]): 36; Papp A→B at 120 min, 5 μM (MDR1 (P-gp) [7]; MDCK-MDR1, pH 7.4, MDCK-MDR1: Papp A-B, A-B direction): 1.67 ×10⁻⁶ cm/s; Papp B→A at 120 min, 5 μM (MDR1 (P-gp) [7]; MDCK-MDR1, pH 7.4, MDCK-MDR1: Papp B-A, B-A direction): 59.3 ×10⁻⁶ cm/s; EC50 [2]: 101 to 500 nM; EC50 [3]: 0.01 to 15 nM; EC50 [4]: 16 to 50 nM

What does the source list for CN(c1ccc(-c2ccc(-c3cnn(C)c3)cc2O)nn1)C1CC2COCC(N2)C1F (single isomer, unassigned) [Compound 80B]?
MDCK-MDR1: % Recov A-B [1]: 76%; MDCK-MDR1: Papp A-B [1]: 6.01 10^−6, cm/s; MDCK-MDR1: % Recov B-A [1]: 87%; MDCK-MDR1: Papp B-A [1]: 40.8 10^−6, cm/s; MDCK-MDR1: Efflux [1]: 7; EC50 [2]: 101 to 500 nM; EC50 [3]: 16 to 50 nM; EC50 [4]: 51 to 100 nM

For CN(c1ccc(-c2cc3ccn(C)c(=O)c3cc2O)nn1)[C@H]1C[C@@H]2CC[C@H]([C@H]1F)N2C (single isomer, unassigned) [Compound 97B], which efflux ratio at 120 min, 5 μM (MDR1 [8]) is on record?
The efflux ratio at 120 min, 5 μM was 27.

What about the Papp A→B at 120 min, 5 μM (MDR1 (P-gp) [9]) of the same compound?
Its Papp A→B at 120 min, 5 μM is 1.96 ×10⁻⁶ cm/s.

What about the Papp B→A at 120 min, 5 μM (MDR1 (P-gp) [9]) of the same compound?
Its Papp B→A at 120 min, 5 μM is 53.1 ×10⁻⁶ cm/s.

What about the EC50 [2] of the same compound?
Its EC50 is 101 to 500 nM.

What about the EC50 [3] of the same compound?
Its EC50 is 101 to 500 nM.

And the EC50 [10]?
Its EC50 is 101 to 500 nM.

And the “MDCK-MDR1: % Recov A-B” value [11]?
The value was 85%.

What about the “MDCK-MDR1: % Recov B-A” value [11] of the same compound?
The value was 83%.
